Measured values: patent US9237996B2, “Glucosyltransferase inhibitor containing epigallocatechin gallate polymer as active ingredient” (priority 2008, dated 2016)

How the values were obtained:
[1] = biological target: T1, glucosyltransferase B (GTFB) (Streptococcus mutans serotype c, UniProt P08987); assay: Glucosyltransferase inhibitory activity, turbidity (550 nm) of water-insoluble glucan, rGTFB; format: biochemical; conditions: 37° C. overnight
T1 construct: made in house; host or cells: Escherichia coli XL-2 harboring plasmid pSK6
Procedure: (§1) The glucosyltransferase inhibitory activity can be measured by using any one of the evaluation methods described in prior-art literatures set forth in Background Art. For example, glucosyltransferase prepared from Streptococcus mutans etc. is added to an aqueous solution containing sucrose, and incubated at about the same temperature (about 37° C.) as in the oral cavity for less than 24 hours, preferably about 16 to 20 hours to enzymatically produce glucan from sucrose. Since glucan is insoluble in water, the turbidity of the resultant reaction solution (for example, turbidity at a wavelength of 550 nm) is measured. In this manner, the yield of glucan can be evaluated. If the yield of glucan low (in other words, turbidity is low), it is said that glucosyltransferase activity is more inhibited than that of the case where the yield of glucan is large (in other words, turbidity is high).
rGTF was prepared by the method described in the paper of M. matsumoto et al, FEMS Microbiology Letters 228 (2003) 73-80. More specifically, Escherichia coli XL-2 strain harboring a plasmid pSK6 having a gene encoding glucosyltransferase B (GTFB) of Streptococcus mutans was subjected to shaking culture performed in Luria Bertani liquid medium containing ampicillin (100 μg/mL) and tetracycline (7.5 μg/mL) at 37° C. for 16 hours. Bacterial cells were collected by centrifugally separating the medium, suspended in a 10 mM phosphate buffer (pH 6.5) previously cooled and crushed by an ultrasonic generator (UD201 type, manufactured by Tomy Seiko Co., Ltd., Tokyo) under ice cooling. After crushed, precipitates were centrifugally removed at 12,000×g for 30 minutes. The resultant supernatant was used as glucosyltransferase B (rGTFB) and put in use in later experiments.
The rGTFB having a specific activity of 503 mU/mg protein and the rGTFC having a specific activity of 6.3 to 22.3 mU/mg protein were used as a mixture. […] Protein was quantified by using the bicinchonine acid method (BCA method) (BCA protein assay kit, manufactured by PIERCE).
With 2 mL of 0.1M KPB (pH6.0) containing 1% sucrose-containing 0.1% dextran T10, rGTFB or rGTFC (amount corresponding to 15 mU (average value)) obtained in Example 2, and each of the above samples (final concentration: 0.1 mg/mL) were mixed. […] The turbidity (550 nm) of the resultant reaction solution was measured to obtain the yield of glucan insoluble in water. […]
With 2 mL of 0.1M KPB (pH6.0) containing 1% sucrose and 0.1% dextran T10, rGTFB or rGTFC (amount corresponding to 15 mU (average value)) obtained in Example 2 and each of the above samples (final concentration: 0.05 mg/mL) were mixed. […] The turbidity (550 nm) of the resultant reaction solution was measured to obtain the yield of glucan insoluble in water. […]

[2] = biological target: T2, glucosyltransferase C (GTFC) (Streptococcus mutans serotype c, UniProt P13470); assay: Glucosyltransferase inhibitory activity, turbidity (550 nm) of water-insoluble glucan, rGTFC; format: biochemical; conditions: 37° C. overnight
T2 construct: made in house; host or cells: Escherichia coli XL-2 harboring a plasmid (printed as pSK6)
Procedure: as §1
Similarly, recombinant glucosyltransferase C (rGTFC) was prepared by using Escherichia coli XL-2 strain harboring a plasmid pSK6 having a gene encoding glucosyltransferase C (GTFC) of Streptococcus mutans and put in use in later experiments.
The rGTFB having a specific activity of 503 mU/mg protein and the rGTFC having a specific activity of 6.3 to 22.3 mU/mg protein were used as a mixture. The activity 1U represents activity of an enzyme in converting glucose ([…]) derived from sucrose into glucan per minute. Protein was quantified by using the bicinchonine acid method (BCA method) (BCA protein assay kit, manufactured by PIERCE).
(§2) With 2 mL of 0.1M KPB (pH6.0) containing 1% sucrose-containing 0.1% dextran T10, rGTFB or rGTFC (amount corresponding to 15 mU (average value)) obtained in Example 2, and each of the above samples (final concentration: 0.1 mg/mL) were mixed. The mixture was incubated at 37° C. overnight. The turbidity (550 nm) of the resultant reaction solution was measured to obtain the yield of glucan insoluble in water. The lower yield of the glucan insoluble in water (in other words, turbidity is low) means that the activity of glucosyltransferase is more inhibited. Note that the control (cont) shown in the figures represents turbidity in the absence of the aforementioned samples.
With 2 mL of 0.1M KPB (pH6.0) containing 1% sucrose and 0.1% dextran T10, rGTFB or rGTFC (amount corresponding to 15 mU (average value)) obtained in Example 2 and each of the above samples (final concentration: 0.05 mg/mL) were mixed. The mixture was incubated at 37° C. overnight. The turbidity (550 nm) of the resultant reaction solution was measured to obtain the yield of glucan insoluble in water. The lower yield of the glucan insoluble in water (in other words, turbidity is low) means that the activity of glucosyltransferase is more inhibited. […]

[3] = tested on: glucosyltransferase (GTF); assay: Overall GTF inhibitory activity, conclusion from the rGTFB and rGTFC tests; format: biochemical, Streptococcus mutans; conditions: summary of Examples 3 and 4, GTFB and GTFC
Procedure: as §2
as §2, with “1% sucrose and” for “1% sucrose-containing”, “Example 2” for “Example 2,”, “concentration: 0.05” for “concentration: 0.1”

[4] = sample final concentration 0.1 mg/mL, FIG. 7
[5] = sample final concentration 0.1 mg/mL, FIG. 8

T1 sequence (P08987 35-1476): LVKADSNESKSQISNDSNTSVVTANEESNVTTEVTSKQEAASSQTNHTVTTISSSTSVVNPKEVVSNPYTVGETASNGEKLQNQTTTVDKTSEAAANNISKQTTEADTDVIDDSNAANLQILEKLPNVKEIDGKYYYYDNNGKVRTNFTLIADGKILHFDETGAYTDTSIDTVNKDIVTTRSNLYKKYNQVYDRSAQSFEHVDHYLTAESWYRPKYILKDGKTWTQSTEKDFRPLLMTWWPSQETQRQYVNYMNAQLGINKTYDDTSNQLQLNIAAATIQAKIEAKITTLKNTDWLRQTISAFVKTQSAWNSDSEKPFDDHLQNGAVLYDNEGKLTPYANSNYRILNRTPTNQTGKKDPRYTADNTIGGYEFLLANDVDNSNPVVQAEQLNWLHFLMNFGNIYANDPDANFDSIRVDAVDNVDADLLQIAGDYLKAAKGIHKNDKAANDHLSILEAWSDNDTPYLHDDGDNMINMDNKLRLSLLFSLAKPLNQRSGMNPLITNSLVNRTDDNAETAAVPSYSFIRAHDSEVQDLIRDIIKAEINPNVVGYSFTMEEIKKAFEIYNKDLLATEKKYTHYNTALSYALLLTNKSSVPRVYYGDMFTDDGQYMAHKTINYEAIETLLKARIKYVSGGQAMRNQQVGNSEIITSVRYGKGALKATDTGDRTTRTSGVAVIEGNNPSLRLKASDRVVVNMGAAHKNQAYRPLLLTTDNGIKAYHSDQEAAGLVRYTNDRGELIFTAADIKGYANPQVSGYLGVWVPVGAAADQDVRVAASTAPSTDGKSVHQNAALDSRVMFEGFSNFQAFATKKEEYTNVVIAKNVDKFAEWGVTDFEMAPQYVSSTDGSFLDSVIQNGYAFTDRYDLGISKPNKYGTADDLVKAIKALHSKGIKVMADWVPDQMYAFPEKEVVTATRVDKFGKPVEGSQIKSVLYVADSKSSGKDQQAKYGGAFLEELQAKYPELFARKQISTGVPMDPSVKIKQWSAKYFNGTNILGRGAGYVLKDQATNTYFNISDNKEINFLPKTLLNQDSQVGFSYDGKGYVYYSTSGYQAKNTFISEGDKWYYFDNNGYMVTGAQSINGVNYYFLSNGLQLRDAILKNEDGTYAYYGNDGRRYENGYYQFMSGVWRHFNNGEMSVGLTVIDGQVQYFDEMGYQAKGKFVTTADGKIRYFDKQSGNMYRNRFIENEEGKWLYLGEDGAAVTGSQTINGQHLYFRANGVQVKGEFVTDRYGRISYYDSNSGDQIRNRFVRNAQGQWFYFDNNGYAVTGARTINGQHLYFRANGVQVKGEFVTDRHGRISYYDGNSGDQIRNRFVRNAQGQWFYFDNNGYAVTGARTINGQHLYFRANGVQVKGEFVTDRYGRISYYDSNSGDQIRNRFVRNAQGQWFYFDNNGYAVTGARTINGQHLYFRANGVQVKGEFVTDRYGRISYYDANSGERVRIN
T2 sequence (P13470 35-1455): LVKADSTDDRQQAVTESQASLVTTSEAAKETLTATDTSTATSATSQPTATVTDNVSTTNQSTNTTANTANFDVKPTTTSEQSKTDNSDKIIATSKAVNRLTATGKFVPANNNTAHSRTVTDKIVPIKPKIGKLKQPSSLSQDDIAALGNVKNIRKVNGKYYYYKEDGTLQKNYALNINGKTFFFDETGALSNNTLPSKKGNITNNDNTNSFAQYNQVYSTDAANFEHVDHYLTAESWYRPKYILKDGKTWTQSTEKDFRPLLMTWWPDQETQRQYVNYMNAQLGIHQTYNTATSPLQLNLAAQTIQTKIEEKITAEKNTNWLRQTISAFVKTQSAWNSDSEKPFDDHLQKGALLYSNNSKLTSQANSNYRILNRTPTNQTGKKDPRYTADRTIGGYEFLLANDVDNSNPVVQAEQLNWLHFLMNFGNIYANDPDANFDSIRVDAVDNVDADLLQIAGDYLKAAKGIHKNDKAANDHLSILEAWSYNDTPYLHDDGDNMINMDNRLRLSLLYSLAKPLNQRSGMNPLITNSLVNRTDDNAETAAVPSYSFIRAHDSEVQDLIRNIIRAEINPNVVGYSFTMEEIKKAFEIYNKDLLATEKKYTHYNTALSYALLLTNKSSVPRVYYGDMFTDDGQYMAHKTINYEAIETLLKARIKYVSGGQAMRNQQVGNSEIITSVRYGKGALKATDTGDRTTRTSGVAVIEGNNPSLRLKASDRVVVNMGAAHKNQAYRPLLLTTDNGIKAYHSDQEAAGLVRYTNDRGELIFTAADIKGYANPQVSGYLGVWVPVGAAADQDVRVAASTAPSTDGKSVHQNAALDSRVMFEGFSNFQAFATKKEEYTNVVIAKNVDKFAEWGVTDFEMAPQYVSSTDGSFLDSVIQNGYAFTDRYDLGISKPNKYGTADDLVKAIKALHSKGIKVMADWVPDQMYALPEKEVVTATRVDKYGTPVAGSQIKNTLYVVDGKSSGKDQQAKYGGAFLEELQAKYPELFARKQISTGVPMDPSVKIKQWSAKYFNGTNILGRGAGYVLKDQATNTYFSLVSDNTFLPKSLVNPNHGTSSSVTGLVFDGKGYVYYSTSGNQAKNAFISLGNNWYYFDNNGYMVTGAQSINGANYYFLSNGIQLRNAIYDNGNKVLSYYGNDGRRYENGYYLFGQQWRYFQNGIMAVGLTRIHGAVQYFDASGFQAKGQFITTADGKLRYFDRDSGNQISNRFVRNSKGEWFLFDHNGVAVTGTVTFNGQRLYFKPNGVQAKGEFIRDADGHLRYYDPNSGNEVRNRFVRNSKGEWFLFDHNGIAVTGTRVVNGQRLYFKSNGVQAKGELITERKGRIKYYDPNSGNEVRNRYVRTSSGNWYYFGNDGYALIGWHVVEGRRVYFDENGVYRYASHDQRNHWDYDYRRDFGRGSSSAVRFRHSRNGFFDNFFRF

| Structure (SMILES) | effect on the activity of GTFB (yield of water-insoluble glucan, turbidity) [1, 4] | effect on the activity of GTFC (yield of water-insoluble glucan, turbidity) [2, 5] | effect on the activity of GTFB (yield of water-insoluble glucan, turbidity) ([1]; sample final concentration 0.05 mg/mL, FIG. 9) | effect on the activity of GTFC (yield of water-insoluble glucan, turbidity) ([2]; sample final concentration 0.05 mg/mL, FIG. 10) | GTF inhibitory activity (overall) [3] |
| --- | --- | --- | --- | --- | --- |
| O=C(O[C@@H]1Cc2c(O)cc(O)cc2O[C@@H]1c1cc(O)c(O)c(O)c1-c1c([C@H]2Oc3cc(O)cc(O)c3C[C@H]2OC(=O)c2cc(O)c(O)c(O)c2)cc(O)c(O)c1O)c1cc(O)c(O)c(O)c1 [TSN-A, theasinensin A, reference compound] | substantially no effect | extremely enhances |  |  |  |
| O=C(O[C@@H]1Cc2c(O)cc(O)c(Cc3c(O)cc(O)c4c3O[C@H](c3cc(O)c(O)c(O)c3)[C@H](OC(=O)c3cc(O)c(O)c(O)c3)C4)c2O[C@@H]1c1cc(O)c(O)c(O)c1)c1cc(O)c(O)c(O)c1 [OHBF-A, oolong homobisflavan-A] | inhibits | slightly enhances |  |  |  |
| O=C(O[C@@H]1Cc2c(O)cc(O)c(Cc3c(O)c(Cc4c(O)c(Cc5c(O)cc(O)c6c5O[C@H](c5cc(O)c(O)c(O)c5)[C@H](OC(=O)c5cc(O)c(O)c(O)c5)C6)c(O)c5c4O[C@H](c4cc(O)c(O)c(O)c4)[C@H](OC(=O)c4cc(O)c(O)c(O)c4)C5)c4c(c3O)C[C@@H](OC(=O)c3cc(O)c(O)c(O)c3)[C@@H](c3cc(O)c(O)c(O)c3)O4)c2O[C@@H]1c1cc(O)c(O)c(O)c1)c1cc(O)c(O)c(O)c1 [OHBF-Tet-2, oolong homobisflavan-tetramer-2] |  |  | significant inhibitory effect on GTFB was not confirmed | slightly inhibited |  |
| O=C(O[C@@H]1Cc2c(cc(O)c(Cc3c(O)cc(O)c4c3O[C@H](c3cc(O)c(O)c(O)c3)[C@H](OC(=O)c3cc(O)c(O)c(O)c3)C4)c2O)O[C@@H]1c1cc(O)c(O)c(O)c1)c1cc(O)c(O)c(O)c1 [OHBF-B, oolong homobisflavan-B] | inhibit | inhibit |  |  | high |
